Data reported in US20170253607A1, “LONG-ACTING HIV PROTEASE INHIBITOR” (Shionogi & Co., Ltd., priority 2014, published 2017).

molecular target: HIV-1 PR (Human immunodeficiency virus type 1 group M subtype B, UniProt P04585); test: HIV-protease inhibitory activity assay (FRET peptide substrate); type: biochemical; conditions: Test Example 1
Outline: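 Inhibition of HIV-1 protease was measured as loss of fluorescence dequenching of a HiLyte Fluor 488/QXL 520 peptide at 2 μmol/L, pH 4.8, room temperature, 60 minute reaction. IC50 was derived by nonlinear four-parameter fitting.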

Compared with `COc1ccc(S(=O)(=O)N(CC(C)C)CC(O)C(Cc2ccc(N(Cc3ccccc3-c3sc4c(c3C(=O)O)CC(C)(C)CC4)CC(C)C)cc2)NC(=O)OC2COC3(C)OCCC23)cc1` (stereo not drawn) [Compound I-422], `CCCCCCN(Cc1ccccc1-c1sc2c(c1C(=O)O)CC(C)(C)CC2)c1ccc(CC(NC(=O)OC2COC3(C)OCCC23)C(O)CN(CC(C)C)S(=O)(=O)c2ccc(OC)cc2)cc1` (stereo not drawn) [Compound I-428] is 1.9-fold higher in IC50: 8.58 nM for the first, 15.9 nM for the second. The first is the more potent here.

`COc1ccc(S(=O)(=O)N(CC(C)C)CC(O)C(Cc2ccc(N(Cc3cccnc3)Cc3ccccc3-c3sc4c(c3C(=O)O)CC(C)(C)CC4)cc2)NC(=O)OC2COC3(C)OCCC23)cc1` (stereo not drawn) [Compound I-423] and `COc1ccc(S(=O)(=O)N(CC(C)C)CC(O)C(Cc2ccc(N(Cc3ccncc3)Cc3ccccc3-c3sc4c(c3C(=O)O)CC(C)(C)CC4)cc2)NC(=O)OC2COC3(C)OCCC23)cc1` (stereo not drawn) [Compound I-425] are within 1.5-fold of each other in IC50: 2.8 nM for the first, 2.65 nM for the second.

`COc1ccc(S(=O)(=O)N(CC(C)C)CC(O)C(Cc2ccc(N(Cc3ccoc3)Cc3ccccc3-c3sc4c(c3C(=O)O)CC(C)(C)CC4)cc2)NC(=O)OC2COC3(C)OCCC23)cc1` (stereo not drawn) [Compound I-424] and `COc1ccc(S(=O)(=O)N(CC(C)C)CC(O)C(Cc2ccc(N(Cc3nccs3)Cc3ccccc3-c3sc4c(c3C(=O)O)CC(C)(C)CC4)cc2)NC(=O)OC2COC3(C)OCCC23)cc1` (stereo not drawn) [Compound I-431] are within 1.5-fold of each other in IC50: 5.41 nM for the first, 3.72 nM for the second.

`COc1ccc(S(=O)(=O)N(CC(C)C)CC(O)C(Cc2ccc(N(CCCc3ccccc3)Cc3ccccc3-c3sc4c(c3C(=O)O)CC(C)(C)CC4)cc2)NC(=O)OC2COC3(C)OCCC23)cc1` (stereo not drawn) [Compound I-426] and `COc1ccc(S(=O)(=O)N(CC(C)C)CC(O)C(Cc2ccc(N(CCCCc3ccccc3)Cc3ccccc3-c3sc4c(c3C(=O)O)CC(C)(C)CC4)cc2)NC(=O)OC2COC3(C)OCCC23)cc1` (stereo not drawn) [Compound I-432] are within 1.5-fold of each other in IC50: 8.1 nM for the first, 8.42 nM for the second.

Going from `COc1ccc(S(=O)(=O)N(CC(C)C)CC(O)C(Cc2ccc(N(CCCC(F)(F)F)Cc3ccccc3-c3sc4c(c3C(=O)O)CC(C)(C)CC4)cc2)NC(=O)OC2COC3(C)OCCC23)cc1` (stereo not drawn) [Compound I-427] to `COc1ccc(S(=O)(=O)N(CC(C)C)CC(O)C(Cc2ccc(N(CCC(F)(F)F)Cc3ccccc3-c3sc4c(c3C(=O)O)CC(C)(C)CC4)cc2)NC(=O)OC2COC3(C)OCCC23)cc1` (stereo not drawn) [Compound I-430], the IC50 rises from 10.4 nM to 17.5 nM (1.7-fold). The first is the more potent here.

`COc1ccc(S(=O)(=O)N(CC(C)C)CC(O)C(Cc2ccc(N(CCN3CCOCC3)Cc3ccccc3-c3sc4c(c3C(=O)O)CC(C)(C)CC4)cc2)NC(=O)OC2COC3(C)OCCC23)cc1` (stereo not drawn) [Compound I-429] and `COc1ccc(S(=O)(=O)N(CC(C)C)CC(O)C(Cc2ccc(Nc3ncc(-c4sc5c(c4C(=O)O)CC(C)(C)CC5)cn3)cc2)NC(=O)OC2COC3(C)OCCC23)cc1` (stereo not drawn) [Compound I-433] are within 1.5-fold of each other in IC50: 2.21 nM for the first, 2.49 nM for the second.

`COc1ccc(S(=O)(=O)N(CC(C)C)CC(O)C(Cc2ccc(NCc3ccc(C(=O)Nc4sc5c(c4C(=O)O)CC(C)(C)CC5)cc3)cc2)NC(=O)OC2COC3(C)OCCC23)cc1` (stereo not drawn) [Compound I-437] and `COc1ccc(S(=O)(=O)N(CC(C)C)CC(O)C(Cc2ccc(NCc3ccc(CCC(=O)Nc4sc5c(c4C(=O)O)CC(C)(C)CC5)cc3)cc2)NC(=O)OC2COC3(C)OCCC23)cc1` (stereo not drawn) [Compound I-439] are within 1.5-fold of each other in IC50: 4.42 nM for the first, 3.45 nM for the second.

`COc1ccc(S(=O)(=O)N(CC(C)C)CC(O)C(Cc2ccc(NCc3ccc(C(=O)Nc4sc5c(c4C(=O)O)CC(C)(C)CC5)o3)cc2)NC(=O)OC2COC3(C)OCCC23)cc1` (stereo not drawn) [Compound I-438] and `COc1ccc(S(=O)(=O)N(CC(C)C)CC(O)C(Cc2ccc(NCc3ccc(C(=O)Nc4sc5c(c4C(=O)O)CC(C)(C)CC5)s3)cc2)NC(=O)OC2COC3(C)OCCC23)cc1` (stereo not drawn) [Compound I-441] are within 1.5-fold of each other in IC50: 2.55 nM for the first, 2.61 nM for the second.

Compared with `COc1ccc(S(=O)(=O)N(CC(C)C)CC(O)C(Cc2ccc(NCc3cnn4ccc(C(=O)Nc5sc6c(c5C(=O)O)CC(C)(C)CC6)nc34)cc2)NC(=O)OC2COC3(C)OCCC23)cc1` (stereo not drawn) [Compound I-442], `COc1ccc(S(=O)(=O)N(CC(C)C)CC(O)C(Cc2ccc(NCc3cncc(C(=O)Nc4sc5c(c4C(=O)O)CC(C)(C)CC5)c3)cc2)NC(=O)OC2COC3(C)OCCC23)cc1` (stereo not drawn) [Compound I-443] is 1.6-fold lower in IC50: 2.95 nM for the first, 1.88 nM for the second.
